This note sets out measurements from patent US8420657B2 (Novartis AG, priority 2008, dated 2013).

Common to all, as to type: biochemical
In one test the target is T1, GST-JAK2(808-1132) (Homo sapiens, UniProt O60674).
T1 construct: GST-JAK2(808-1132); purchased Invitrogen (Carlsbad, USA) #4288
Put plainly: JAK2 kinase assay (Caliper mobility shift, LabChip 3000). The procedure, abridged:
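Recombinant GST-JAK2(808-1132) kinase domain with FITC-labelled JAK3tide peptide substrate and ATP; 60 min at 30 °C, EDTA stop. Substrate/product ratio read by microfluidic mobility shift; compounds at 8 final concentrations, 10 to 0.003 μM.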

The target in a further test is T2, cMet (Homo sapiens, UniProt P08581).
T2 construct: using the recombinant domains of cMet, cKit, ALK and PDGFRalpha kinases
Put plainly: cMet LanthaScreen TR-FRET kinase phosphorylation assay. Particulars: recombinant kinase domain. Here is the method:
(§1) The compounds are assayed in an antibody based kinase phosphorylation assay using the recombinant domains of cMet, cKit, ALK and PDGFRalpha kinases and a generic phospho-tyrosine peptide substrate. LanthaScreen™ is the detection of Time-Resolved Fluorescence Resonance Energy Transfer (TR-FRET) using lanthanide chelates to measure interactions between various binding partners. In a TR-FRET kinase assay, a long-lifetime lanthanide donor species is conjugated to an antibody that specifically binds to a phosphorylated product of a kinase reaction that is labeled with a suitable acceptor fluorophore. This antibody-mediated interaction brings the lanthanide donor and the acceptor into proximity such that resonance energy transfer can take place, resulting in a detectible increase in FRET. The LanthaScreen is run at ambient temperature and terminated by the addition of stop solution, followed by Tb-labeled P-20 antibody. After incubating in the dark, the plates are transferred to a fluorescence reader for counting. The effect of compound on the enzymatic activity is in all assays obtained from the linear progress curves and determined from one reading (end point measurement).

The target of the next test is T3, cKit (Homo sapiens, UniProt P10721).
T3 construct: using the recombinant domains of cMet, cKit, ALK and PDGFRalpha kinases
Put plainly: cKit LanthaScreen TR-FRET kinase phosphorylation assay. Particulars: recombinant kinase domain. Here is the method:
as §1
In general terms: Time-resolved FRET reads energy transfer from a long-lived donor to a nearby acceptor.

The next test concerns the target T4, ALK (Homo sapiens, UniProt Q9UM73).
T4 construct: using the recombinant domains of cMet, cKit, ALK and PDGFRalpha kinases
Put plainly: ALK LanthaScreen TR-FRET kinase phosphorylation assay. Particulars: recombinant kinase domain. Here is the method:
as §1

Another test concerns the target T5, PDGFRalpha (Homo sapiens, UniProt P16234).
T5 construct: using the recombinant domains of cMet, cKit, ALK and PDGFRalpha kinases
Put plainly: PDGFRalpha LanthaScreen TR-FRET kinase phosphorylation assay. To be noted: recombinant kinase domain, read-out: PDGFRa/IC50. Here is the method:
as §1

pIC50: −log10 of the molar value. Read-outs that look alike come from different tables or passages of the source. Some results are limits rather than exact numbers.

T3 sequence (P10721 589-937 limits assumed): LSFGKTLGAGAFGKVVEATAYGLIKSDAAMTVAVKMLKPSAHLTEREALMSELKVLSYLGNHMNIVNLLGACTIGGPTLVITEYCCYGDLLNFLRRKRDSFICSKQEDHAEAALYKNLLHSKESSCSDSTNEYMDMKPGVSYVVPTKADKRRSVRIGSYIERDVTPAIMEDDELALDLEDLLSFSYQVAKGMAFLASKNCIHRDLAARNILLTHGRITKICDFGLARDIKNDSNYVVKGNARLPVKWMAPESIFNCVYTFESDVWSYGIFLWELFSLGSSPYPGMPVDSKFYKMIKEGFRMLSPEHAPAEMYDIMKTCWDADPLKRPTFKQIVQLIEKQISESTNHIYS
T4 sequence (Q9UM73 1116-1392 limits assumed, species assumed): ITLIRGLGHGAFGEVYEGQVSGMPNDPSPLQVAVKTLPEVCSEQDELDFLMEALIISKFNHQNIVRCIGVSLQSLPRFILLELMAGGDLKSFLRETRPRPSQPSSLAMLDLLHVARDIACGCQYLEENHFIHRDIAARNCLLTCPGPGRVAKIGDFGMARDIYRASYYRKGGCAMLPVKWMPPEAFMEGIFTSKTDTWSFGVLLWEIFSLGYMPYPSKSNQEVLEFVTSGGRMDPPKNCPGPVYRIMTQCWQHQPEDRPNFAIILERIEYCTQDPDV
T5 sequence (P16234 593-954 limits assumed, species assumed): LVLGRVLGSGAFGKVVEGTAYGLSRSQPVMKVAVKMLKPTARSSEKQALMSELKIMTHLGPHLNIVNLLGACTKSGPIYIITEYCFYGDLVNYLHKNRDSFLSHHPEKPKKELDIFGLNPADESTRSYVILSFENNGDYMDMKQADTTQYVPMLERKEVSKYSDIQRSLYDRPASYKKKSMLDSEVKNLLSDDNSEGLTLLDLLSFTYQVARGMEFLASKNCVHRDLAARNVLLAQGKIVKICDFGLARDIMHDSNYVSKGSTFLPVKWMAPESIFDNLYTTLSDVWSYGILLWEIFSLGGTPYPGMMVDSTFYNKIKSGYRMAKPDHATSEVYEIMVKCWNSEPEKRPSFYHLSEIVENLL
T1 sequence (O60674 808-1132): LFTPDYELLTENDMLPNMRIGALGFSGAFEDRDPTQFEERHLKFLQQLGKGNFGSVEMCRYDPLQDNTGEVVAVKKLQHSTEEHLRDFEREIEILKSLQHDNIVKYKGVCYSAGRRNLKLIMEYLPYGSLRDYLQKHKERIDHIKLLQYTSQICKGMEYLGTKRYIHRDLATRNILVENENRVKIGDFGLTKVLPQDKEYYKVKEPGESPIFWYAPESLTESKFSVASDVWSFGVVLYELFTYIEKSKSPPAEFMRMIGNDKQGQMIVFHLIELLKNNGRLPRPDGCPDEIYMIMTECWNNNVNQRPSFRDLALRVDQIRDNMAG
T2 sequence (P08581 1078-1345 limits assumed): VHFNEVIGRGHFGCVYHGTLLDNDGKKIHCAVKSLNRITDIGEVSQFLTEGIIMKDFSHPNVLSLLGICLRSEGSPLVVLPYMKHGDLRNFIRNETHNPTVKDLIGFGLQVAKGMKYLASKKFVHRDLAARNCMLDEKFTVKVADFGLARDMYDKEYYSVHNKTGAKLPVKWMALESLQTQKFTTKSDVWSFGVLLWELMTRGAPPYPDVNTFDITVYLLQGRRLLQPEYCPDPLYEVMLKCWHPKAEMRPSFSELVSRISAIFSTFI

Consider `C[C@@H]1CN(c2ccc(Nc3ncc4ccn(-c5ccc(NS(C)(=O)=O)cc5)c4n3)cn2)C[C@H](C)N1` [Example 380, N-(4-{2-[6-(cis-3,5-Dimethyl-piperazin-1-yl)-pyridin-3-ylamino]-pyrrolo[2,3-d]pyrimidin-7-yl}-phenyl)-methanesulfonamide], for which the pIC50 was 8.49 at GST-JAK2(808-1132); 8.49 at GST-JAK2(808-1132) (Table 3); 5.27 on cMet; 5.77 at cKit; less than 5.00 on ALK; 5.28 at PDGFRalpha.
For `Cc1cc(Nc2ncc3ccn(-c4ccc(C(=O)N5CCOCC5)c(F)c4)c3n2)nn1C` [Example 311, {4-[2-(1,5-Dimethyl-1H-pyrazol-3-ylamino)-pyrrolo[2,3-d]pyrimidin-7-yl]-2-fluoro-phenyl}-morpholin-4-yl-methanone], the pIC50 is 7.51 on GST-JAK2(808-1132); 7.51 on GST-JAK2(808-1132) (Table 3); less than 5.00 on cMet; less than 5.00 at cKit; less than 5.00 on ALK; less than 5.00 on PDGFRalpha.
On to `CN1CCN(C(=O)c2cccc(Nc3ncc4ccn(-c5cc(F)c(CN6CCOCC6)c(F)c5)c4n3)c2)CC1` [Example 203, {3-[7-(3,5-Difluoro-4-morpholin-4-ylmethyl-phenyl)-7H-pyrrolo[2,3-d]pyrimidin-2-ylamino]-phenyl}-(4-methyl-piperazin-1-yl)-methanone], for which the pIC50 is 8.13 on GST-JAK2(808-1132); 8.19 at GST-JAK2(808-1132) (Table 3); 5.16 on cMet; 5.33 on cKit; less than 5.00 on ALK; less than 5.00 at PDGFRalpha.
For the molecule `Cc1ccc(Nc2ncc3ccn(-c4cc(F)c(CN5CCOCC5)c(F)c4)c3n2)cc1CN1CCNCC1` [Example 332, [7-(3,5-Difluoro-4-morpholin-4-ylmethyl-phenyl)-7H-pyrrolo[2,3-d]pyrimidin-2-yl]-(4-methyl-3-piperazin-1-ylmethyl-phenyl)-amine], the pIC50 is not below 8.52 at GST-JAK2(808-1132); 5.12 on cMet; 5.81 on cKit; 5.04 on ALK; 5.17 on PDGFRalpha.
Regarding `COc1cc(Nc2ncc3ccn(-c4ccc(C(=O)N5CCOCC5)c(F)c4)c3n2)ccc1F` [Example 151, {2-Fluoro-4-[2-(4-fluoro-3-methoxy-phenylamino)-pyrrolo[2,3-d]pyrimidin-7-yl]-phenyl}-morpholin-4-yl-methanone], the pIC50 on GST-JAK2(808-1132) is 8.24; on GST-JAK2(808-1132) (Table 3), 8.24; on cMet, less than 5.00; at cKit it was less than 5.00; on ALK, less than 5.00; at PDGFRalpha it was less than 5.00.
In the case of `COCc1c(F)cc(-n2ccc3cnc(Nc4ccc(N5CCN(C)CC5)nc4)nc32)cc1F` [Example 446, [7-(3,5-Difluoro-4-methoxymethyl-phenyl)-7H-pyrrolo[2,3-d]pyrimidin-2-yl]-[6-(4-methyl-piperazin-1-yl)-pyridin-3-yl]-amine], the pIC50 is 8.37 at GST-JAK2(808-1132); 8.37 at GST-JAK2(808-1132) (Table 3); 5.22 on cMet; 5.58 on cKit; less than 5.00 at ALK; 5.13 at PDGFRalpha.
On to `Cc1ccc(Nc2ncc3ccn(-c4cc(F)c(CN5CCNC(=O)C5)c(F)c4)c3n2)cc1CN1CCNCC1` [Example 382, 4-{2,6-Difluoro-4-[2-(4-methyl-3-piperazin-1-ylmethyl-phenylamino)-pyrrolo[2,3-d]pyrimidin-7-yl]-benzyl}-piperazin-2-one], for which the pIC50 at GST-JAK2(808-1132) is 8.46; at GST-JAK2(808-1132) (Table 3), 8.46; on cMet it was 5.62; on cKit, 5.96; at ALK it was less than 5.00; at PDGFRalpha, 5.11.
Turning to `Cc1ccc(Nc2ncc3ccn(-c4ccc(C(=O)N5CCOCC5)cc4)c3n2)cn1` [Example 238, {4-[2-(6-Methyl-pyridin-3-ylamino)-pyrrolo[2,3-d]pyrimidin-7-yl]-phenyl}-morpholin-4-yl-methanone], the pIC50 at GST-JAK2(808-1132) was 7.95; at GST-JAK2(808-1132) (Table 3), 7.95; on cMet, 5.09; at cKit, less than 5.00; at ALK it was less than 5.00; on PDGFRalpha, 5.18.
`CC1(C)NCCN(c2cc(Nc3ncc4ccn(-c5cc(F)c(CN6CCOCC6)c(F)c5)c4n3)ccn2)C1=O` [Example 503, 1-{4-[7-(3,5-Difluoro-4-morpholin-4-ylmethyl-phenyl)-7H-pyrrolo[2,3-d]pyrimidin-2-ylamino]-pyridin-2-yl}-3,3-dimethyl-piperazin-2-one]: the pIC50 on GST-JAK2(808-1132) is not below 8.52; at GST-JAK2(808-1132) (Table 3), more than 8.52; on cMet, 5.21; at cKit, 5.02; on ALK, less than 5.00; on PDGFRalpha it was less than 5.00.
As to `Cc1ccc(Nc2ncc3ccn(-c4ccc(C(=O)N5CCN(CCO)CC5)cc4)c3n2)cc1C` [Example 300, {4-[2-(3,4-Dimethyl-phenylamino)-pyrrolo[2,3-d]pyrimidin-7-yl]-phenyl}-[4-(2-hydroxy-ethyl)-piperazin-1-yl]-methanone], the pIC50 on GST-JAK2(808-1132) was 7.76; at GST-JAK2(808-1132) (Table 3), 7.76; on cMet, less than 5.00; at cKit, 5.47; on ALK, less than 5.00; at PDGFRalpha, 5.11.
As for `Fc1cc(-n2ccc3cnc(Nc4ccnc(CN5CCNCC5)c4)nc32)cc(F)c1CN1CCOCC1` [Example 372, [7-(3,5-Difluoro-4-morpholin-4-ylmethyl-phenyl)-7H-pyrrolo[2,3-d]pyrimidin-2-yl]-(2-piperazin-1-ylmethyl-pyridin-4-yl)-amine], the pIC50 at GST-JAK2(808-1132) is 8.33; on GST-JAK2(808-1132) (Table 3), 8.33; on cMet, less than 5.00; at cKit, 5.24; on ALK it was less than 5.00; on PDGFRalpha, less than 5.00.
For the molecule `CN1CCN(c2ccc(Nc3ncc4ccn(-c5cc(F)c(CN6CCS(=O)(=O)CC6)c(F)c5)c4n3)nc2)CC1` [Example 440, {7-[4-(1,1-Dioxido-thiomorpholin-4-ylmethyl)-3,5-difluoro-phenyl]-7H-pyrrolo[2,3-d]pyrimidin-2-yl}-[5-(4-methyl-piperazin-1-yl)-pyridin-2-yl]-amine], the pIC50 was 8.49 at GST-JAK2(808-1132); 8.49 on GST-JAK2(808-1132) (Table 3); less than 5.00 on cMet; less than 5.00 at cKit; less than 5.00 on ALK; less than 5.00 on PDGFRalpha.
With `CC(C)Oc1ccc(Nc2ncc3ccn(-c4ccc(C#N)cc4)c3n2)cc1` [Example 96, 4-[2-(4-Isopropoxy-phenylamino)-pyrrolo[2,3-d]pyrimidin-7-yl]-benzonitrile], the pIC50 at GST-JAK2(808-1132) was 7.31; on GST-JAK2(808-1132) (Table 3), 7.31; on cMet it was less than 5.00; at cKit it was less than 5.00; on ALK, less than 5.00; at PDGFRalpha, less than 5.00.
Take `COCc1ccc(Nc2ncc3ccn(-c4cc(F)c(CN5CCS(=O)(=O)CC5)c(F)c4)c3n2)cc1` [Example 184, {7-[4-(1,1-Dioxido-thiomorpholin-4-ylmethyl)-3,5-difluoro-phenyl]-7H-pyrrolo[2,3-d]pyrimidin-2-yl}-(4-methoxymethyl-phenyl)-amine]: the pIC50 is more than 8.52 at GST-JAK2(808-1132); more than 8.52 on GST-JAK2(808-1132) (Table 3); less than 5.00 on cMet; less than 5.00 at cKit; less than 5.00 at ALK; less than 5.00 on PDGFRalpha.
Turning to `Cn1cc(Nc2ncc3ccn(-c4ccc(CC(=O)N5CCOCC5)cc4)c3n2)cn1` [Example 301, 2-{4-[2-(1-Methyl-1H-pyrazol-4-ylamino)-pyrrolo[2,3-d]pyrimidin-7-yl]-phenyl}-1-morpholin-4-yl-ethanone], the pIC50 at GST-JAK2(808-1132) is more than 8.52; at GST-JAK2(808-1132) (Table 3), more than 8.52; at cMet, 5.44; at cKit, 5.32; at ALK, less than 5.00; on PDGFRalpha it was 5.25.
